Our source for the IC50 values is patent US11981680B2, “Substituted thienopyrroles as PAD4 inhibitors” (BRISTOL-MYERS SQUIBB COMPANY, priority 2018, dated 2024).

The test addresses human PAD4 (hPAD4) (Homo sapiens (Human), UniProt Q9UM07). Briefly: RFMS Human PAD4 Functional Assay. The test is classed as biochemical. As to conditions: rapid-fire mass spectrum (RFMS) assay; 5 nM hPAD4 enzyme, 250 μM BAEE, 30 min preincubation at 37° C. As to the method: Compounds of the present invention were assayed as inhibitors of PAD4 using the assay protocol described below.
RFMS Human PAD4 Functional Assay:
Compounds were solubilized in 100% DMSO to achieve a10 mM compound concentration. Compound stock solutions were stored at RT. A series of dilutions were prepared in DMSO and mixed 8 times with 20 μL mixing volume. Final top concentration of compound in the assay is 50 μM. Final assay conditions were as follows: • Reaction volume: 26 μl • Assay buffer: 25 mM hepes, pH 7.5, 5 mM NaCl, 1 mM DTT, 0.2 mg/ml BSA, 0.01% CHAPS, 50 μM Calcium, and 5 μM TPEN • Final concentrations: 5 nM hPAD4 enzyme, 250 μM BAEE, and 0.5% DMSO • Total incubation time: 30 mins compound and enzyme preincubation at 37° C., 90 min enzyme/substrate reaction, 30 min reaction with phenyl glyoxal at 37° C. • Stop solution: 40 μl 5% TCA in ACN
0.13 μL of compound solution was added to 13 μL of 10 nM PAD4 in assay buffer. After 30 min 13 μl of 500 μM of BAEE was added in 25 mM hepes, pH 7.5, 5 mM NaCl, 1 mM DTT, 0.2 mg/ml BSA, 0.01% CHAPS, 50 μM Calcium, 5 μM TPEN was added and the reaction incubated for 90 min at 37° C. The enzymatic reaction was quenched by addition of 15 μl of 6.1N TCA, 100% Final Concentration is 20%, 35 μl of 8.5 mM phenyl glyoxal (final concentration 4 mM) is then added and the reaction is incubated for 30 min at 37° C.
After 30 minutes the plates are spun down to remove all precipitate. The enzyme reaction was quenched with an equal volume of methanol containing internal standard (modified citrulline). Samples were loaded onto the Rapid Fire RF300 system (Agilent) wherein they were first sipped for 1000 ms and then directly loaded to a C18 separations cartridge using a mixture of acetonitrile containing 0.01% formic acid for 3000 ms desalting. The flow rate of the mobile phase was 1.5 ml/min. Once the samples were eluted from the cartridge, a mobile phase of acetonitrile containing 0.01% formic acid was used to move the samples into the mass spectrometer for 4000 ms at a flow rate of 1.25 ml/min/Sciex API5500 triple quadrupole mass spectrometer (Applied Biosystems) equipped with ESI was used to analyze the peptidyl citrulline and internal standard ions.
MRM transition of product and internal standard were monitored at m/z 424.5 to 350.4 and m/z 293 to 247 respectively. The dwell time for each transition was set at 200 ms, and the ESI voltage was used at 5500 with a source temperature of 400° C. Extracted ion peaks for each transition were integrated using the Rapid Fire Integrator software. Peak area of analyte was normalized with internal standard.).

Each structure is given as a SMILES string.

Chain of human PAD4 (hPAD4) (Q9UM07 whole entry): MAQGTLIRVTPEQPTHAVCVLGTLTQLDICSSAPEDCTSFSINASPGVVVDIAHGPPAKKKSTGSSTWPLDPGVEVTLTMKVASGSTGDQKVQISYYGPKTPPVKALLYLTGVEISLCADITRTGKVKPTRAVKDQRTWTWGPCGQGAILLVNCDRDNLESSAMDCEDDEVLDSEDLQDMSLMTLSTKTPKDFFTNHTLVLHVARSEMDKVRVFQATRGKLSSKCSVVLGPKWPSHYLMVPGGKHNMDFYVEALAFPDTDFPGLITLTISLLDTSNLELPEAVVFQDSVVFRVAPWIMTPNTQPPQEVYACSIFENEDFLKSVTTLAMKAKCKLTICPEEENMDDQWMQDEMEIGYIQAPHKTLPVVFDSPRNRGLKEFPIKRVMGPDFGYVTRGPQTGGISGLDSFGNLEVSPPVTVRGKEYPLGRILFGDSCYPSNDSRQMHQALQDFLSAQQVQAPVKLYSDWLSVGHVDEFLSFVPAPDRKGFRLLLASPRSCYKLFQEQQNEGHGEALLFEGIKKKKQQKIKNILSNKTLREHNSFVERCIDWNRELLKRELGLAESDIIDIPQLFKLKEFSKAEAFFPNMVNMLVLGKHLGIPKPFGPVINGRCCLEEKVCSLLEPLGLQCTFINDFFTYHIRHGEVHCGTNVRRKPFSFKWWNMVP

The term IC50 denotes the concentration that inhibits the measured activity by half. High values mean weaker potency in that assay, low ones greater potency in that assay. For `COc1cc(C(=O)N2C[C@H]3CC[C@@H]2[C@@H]3N)cc2nc(-c3cc4scc(-c5cnn(C6CCOCC6)c5)c4n3CC3CC3)n(C)c12` [Example 48, ((1R,4R,7R)-7-amino-2-azabicyclo[2.2.1]heptan-2-yl)(2-(4-(cyclopropylmethyl)-3-(1-(tetrahydro-2H-pyran-4-yl)-1H-pyrazol-4-yl)-4H-thieno[3,2-b]pyrrol-5-yl)-7-methoxy-1-methyl-1H-benzo[d]imidazol-5-yl)methanone], the IC50 is 0.029 µM.

`COc1cc(C(=O)N2C[C@H](N)C[C@@H](F)C2)cc2nc(-c3cc4sccc4n3CC3CC3)n(C)c12` [Example 30, ((3R,5R)-3-amino-5-fluoropiperidin-1-yl)(2-(4-(cyclopropylmethyl)-4H-thieno[3,2-b]pyrrol-5-yl)-7-methoxy-1-methyl-1H-benzo[d]imidazol-5-yl)methanone] returned an IC50 of 0.086 µM. This IC50 is about 3-fold higher than that of the compound before.

In the case of `COc1cc(C(=O)N2C[C@H]3CC[C@@H]2[C@@H]3N)cc2nc(-c3cc4scc(Br)c4n3CC3CC3)n(C)c12` [Example 1, ((1R,4R,7R)-7-amino-2-azabicyclo[2.2.1]heptan-2-yl)(2-(3-bromo-4-(cyclopropylmethyl)-4H-thieno[3,2-b]pyrrol-5-yl)-7-methoxy-1-methyl-1H-benzo[d]imidazol-5-yl)methanone], inhibition was half-maximal at 0.035 µM (IC50).

In the case of `COc1cc(C(=O)N2C[C@H]3CC[C@@H]2[C@@H]3N)cc2nc(-c3cc4scc(C5CCCNC5)c4n3CC3CC3)n(C)c12` (single isomer, unassigned) [Example 17], the IC50 came out at 0.079 µM.

For the compound `COc1cc(C(=O)N2C[C@H]3CC[C@@H]2[C@@H]3N)cc2nc(-c3cc4scc(CCC#N)c4n3CC3CC3)n(C)c12` [Example 15, 3-(5-(5-((1R,4R,7R)-7-amino-2-azabicyclo[2.2.1]heptane-2-carbonyl)-7-methoxy-1-methyl-1H-benzo[d]imidazol-2-yl)-4-(cyclopropylmethyl)-4H-thieno[3,2-b]pyrrol-3-yl)propanenitrile], the 50% inhibitory concentration (IC50) was 0.059 µM.

`COc1cc(C(=O)N2C[C@H]3CC[C@@H]2[C@@H]3N)cc2nc(-c3cc4scc(C5CCOCC5)c4n3CC3CC3)n(C)c12` [Example 8, ((1R,4R,7R)-7-amino-2-azabicyclo[2.2.1]heptan-2-yl)(2-(4-(cyclopropylmethyl)-3-(tetrahydro-2H-pyran-4-yl)-4H-thieno[3,2-b]pyrrol-5-yl)-7-methoxy-1-methyl-1H-benzo[d]imidazol-5-yl)methanone] returned an IC50 of 0.04 µM.

For the compound `COc1cc(C(=O)N2C[C@H]3CC[C@@H]2[C@@H]3N)cc2nc(-c3cc4scc(-c5cc[nH]n5)c4n3CC3CC3)n(C)c12` [Example 40, ((1R,4R,7R)-7-amino-2-azabicyclo[2.2.1]heptan-2-yl)(2-(4-(cyclopropylmethyl)-3-(1H-pyrazol-3-yl)-4H-thieno[3,2-b]pyrrol-5-yl)-7-methoxy-1-methyl-1H-benzo[d]imidazol-5-yl)methanone], it took 0.024 µM to reach half-maximal inhibition (IC50).

In turn, `COc1cc(C(=O)N2C[C@H]3CC[C@@H]2[C@@H]3N)cc2nc(-c3cc4scc(-c5cccn5C)c4n3CC3CC3)n(C)c12` [Example 44, ((1R,4R,7R)-7-amino-2-azabicyclo[2.2.1]heptan-2-yl)(2-(4-(cyclopropylmethyl)-3-(1-methyl-1H-pyrrol-2-yl)-4H-thieno[3,2-b]pyrrol-5-yl)-7-methoxy-1-methyl-1H-benzo[d]imidazol-5-yl)methanone] gave an IC50 of 0.113 µM.

Turning to `COc1cc(C(=O)N2C[C@H]3CC[C@@H]2[C@@H]3N)cc2nc(-c3cc4sccc4n3CC3CC3)n(C)c12` [Example 29, ((1R,4R,7R)-7-amino-2-azabicyclo[2.2.1]heptan-2-yl)(2-(4-(cyclopropylmethyl)-4H-thieno[3,2-b]pyrrol-5-yl)-7-methoxy-1-methyl-1H-benzo[d]imidazol-5-yl)methanone], the midpoint of inhibition, the IC50, lay at 0.084 µM. This IC50 and that of the compound before are within 1.5-fold of each other.

`COc1cc(C(=O)N2C[C@H]3CC[C@@H]2[C@@H]3N)cc2nc(-c3cc4scc(-c5cnn(CC(F)F)c5)c4n3CC3CC3)n(C)c12` [Example 43, ((1R,4R,7R)-7-amino-2-azabicyclo[2.2.1]heptan-2-yl)(2-(4-(cyclopropylmethyl)-3-(1-(2,2-difluoroethyl)-1H-pyrazol-4-yl)-4H-thieno[3,2-b]pyrrol-5-yl)-7-methoxy-1-methyl-1H-benzo[d]imidazol-5-yl)methanone] gave an IC50 of 0.051 µM. This IC50 is about 1.6-fold lower than that of the compound before.

In the case of `COc1cc(C(=O)N2C[C@H]3CC[C@@H]2[C@@H]3N)cc2nc(-c3cc4scc(C5CC(O)C5)c4n3CC3CC3)n(C)c12` (single isomer, unassigned) [Example 22], 0.082 µM corresponded to half-maximal inhibition (IC50). This IC50 lies about 1.6-fold higher than the previous one.

In turn, `COc1cc(C(=O)N2C[C@H]3CC[C@@H]2[C@@H]3N)cc2nc(-c3cc4scc(C5CC(NC(C)=O)C5)c4n3CC3CC3)n(C)c12` (stereo partly drawn) [Example 5, N-(3-(5-(5-((1R,4R,7R)-7-amino-2-azabicyclo[2.2.1]heptane-2-carbonyl)-7-methoxy-1-methyl-1H-benzo[d]imidazol-2-yl)-4-(cyclopropylmethyl)-4H-thieno[3,2-b]pyrrol-3-yl)cyclobutyl)acetamide] displayed an IC50 of 0.019 µM.

Consider `COc1cc(C(=O)N2C[C@H]3CC[C@@H]2[C@@H]3N)cc2nc(-c3cc4scc(C5CCC(O)CC5)c4n3CC3CC3)n(C)c12` (mixture of isomers) [Example 10, cis/trans-((1R,4R,7R)-7-amino-2-azabicyclo[2.2.1]heptan-2-yl)(2-(4-(cyclopropylmethyl)-3-(4-hydroxycyclohexyl)-4H-thieno[3,2-b]pyrrol-5-yl)-7-methoxy-1-methyl-1H-benzo[d]imidazol-5-yl)methanone], for which the IC50 amounted to 0.046 µM.

As for `COc1cc(C(=O)N2C[C@H]3CC[C@@H]2[C@@H]3N)cc2nc(-c3cc4scc(-c5cnn(CC(F)(F)F)c5)c4n3CC3CC3)n(C)c12` [Example 42, ((1R,4R,7R)-7-amino-2-azabicyclo[2.2.1]heptan-2-yl)(2-(4-(cyclopropylmethyl)-3-(1-(2,2,2-trifluoroethyl)-1H-pyrazol-4-yl)-4H-thieno[3,2-b]pyrrol-5-yl)-7-methoxy-1-methyl-1H-benzo[d]imidazol-5-yl)methanone], half-maximal inhibition (IC50) was put at 0.059 µM.

Take `COc1cc(C(=O)N2C[C@H]3CC[C@@H]2[C@@H]3N)cc2nc(-c3cc4scc(C5COC5)c4n3CC3CC3)n(C)c12` [Example 2, ((1R,4R,7R)-7-amino-2-azabicyclo[2.2.1]heptan-2-yl)(2-(4-(cyclopropylmethyl)-3-(oxetan-3-yl)-4H-thieno[3,2-b]pyrrol-5-yl)-7-methoxy-1-methyl-1H-benzo[d]imidazol-5-yl)methanone]: the IC50 came to 0.063 µM.

The compound `COc1cc(C(=O)N2C[C@H]3CC[C@@H]2[C@@H]3N)cc2nc(-c3cc4scc(C5CC(O)C5)c4n3CC3CC3)n(C)c12` (single isomer, unassigned) [Example 21] gave an IC50 of 0.038 µM.

In turn, `COc1cc(C(=O)N2C[C@H]3CC[C@@H]2[C@@H]3N)cc2nc(-c3cc4scc(CC(CN)CCl)c4n3CC3CC3)n(C)c12` (stereo partly drawn) [Example 19, (2-(3-(3-amino-2-(chloromethyl)propyl)-4-(cyclopropylmethyl)-4H-thieno[3,2-b]pyrrol-5-yl)-7-methoxy-1-methyl-1H-benzo[d]imidazol-5-yl)((1R,4R,7R)-7-amino-2-azabicyclo[2.2.1]heptan-2-yl)methanone] showed an IC50 of 0.07 µM.

`COc1cc(C(=O)N2C[C@H]3CC[C@@H]2[C@@H]3N)cc2nc(-c3cc4scc(CCN5CCOC5=O)c4n3CC3CC3)n(C)c12` [Example 13, 3-(2-(5-(5-((1R,4R,7R)-7-amino-2-azabicyclo[2.2.1]heptane-2-carbonyl)-7-methoxy-1-methyl-1H-benzo[d]imidazol-2-yl)-4-(cyclopropylmethyl)-4H-thieno[3,2-b]pyrrol-3-yl)ethyl)oxazolidin-2-one] came in with an IC50 of 0.054 µM.

`COc1cc(C(=O)N2C[C@H]3CC[C@@H]2[C@@H]3N)cc2nc(-c3cc4scc(-c5ccncc5)c4n3CC3CC3)n(C)c12` [Example 47, ((1R,4R,7R)-7-amino-2-azabicyclo[2.2.1]heptan-2-yl)(2-(4-(cyclopropylmethyl)-3-(pyridin-4-yl)-4H-thieno[3,2-b]pyrrol-5-yl)-7-methoxy-1-methyl-1H-benzo[d]imidazol-5-yl)methanone] returned a 50% inhibitory concentration (IC50) of 0.147 µM.
